{
  "source": "the NIST ThermoML archive (doi:10.1021/je200921u)",
  "details": "Liquid, Ebulliometric method (Recirculating still)",
  "note": "± gives the expanded uncertainty stated by the source.",
  "data": [
    {"smiles": "Cc1ccccc1", "note": "[toluene]", "values": [
      {"measurement": "vapor or sublimation pressure", "setting": "383.55 K", "value": "101.3 ± 2.7", "unit": "kPa"},
      {"measurement": "vapor or sublimation pressure", "setting": "390.25 K", "value": "121.3 ± 3.2", "unit": "kPa"},
      {"measurement": "vapor or sublimation pressure", "setting": "390.26 K", "value": "121.3 ± 3.2", "unit": "kPa"},
      {"measurement": "vapor or sublimation pressure", "setting": "400.75 K", "value": "161.3 ± 4.3", "unit": "kPa"},
      {"measurement": "vapor or sublimation pressure", "setting": "409.65 K", "value": "201.3 ± 5.3", "unit": "kPa"}
    ]},
    {"smiles": "CCO", "note": "[ethanol]", "values": [
      {"measurement": "vapor or sublimation pressure", "setting": "351.35 K", "value": "101.3 ± 2.6", "unit": "kPa"},
      {"measurement": "vapor or sublimation pressure", "setting": "356.11 K", "value": "121.3 ± 3.1", "unit": "kPa"},
      {"measurement": "vapor or sublimation pressure", "setting": "363.55 K", "value": "161.3 ± 4.1", "unit": "kPa"},
      {"measurement": "vapor or sublimation pressure", "setting": "369.55 K", "value": "201.3 ± 5.1", "unit": "kPa"}
    ]},
    {"smiles": "CC(C)O", "note": "[propan-2-ol]", "values": [
      {"measurement": "vapor or sublimation pressure", "setting": "355.35 K", "value": "101.3 ± 2.6", "unit": "kPa"},
      {"measurement": "vapor or sublimation pressure", "setting": "359.95 K", "value": "121.3 ± 3.1", "unit": "kPa"},
      {"measurement": "vapor or sublimation pressure", "setting": "367.65 K", "value": "161.3 ± 4.1", "unit": "kPa"},
      {"measurement": "vapor or sublimation pressure", "setting": "373.65 K", "value": "201.3 ± 5.1", "unit": "kPa"}
    ]}
  ]
}
